Data taken from US20260042753A1 (Merck Patent GmbH, priority 2019, published 2026).
Read-outs that look alike come from different tables or passages of the source.

Key:
[1] = molecular target: mutant cKIT (560-576 and V654A) in GIST430/654 cell line (Homo sapiens (Human), UniProt P10721, DEL560-576/V654A); test: Cellular testing of cKIT mutant inhibitors: phospho-Y307-cKIT Luminex assay in GIST430/654 cells; assay type: cell-based; conditions: read-out: GIST 430/654 IC50
Procedure: Assay Principle for Cellular Testing of cKIT Mutant Inhibitors
The GIST430/654 cell line expressing mutated constitutively active cKIT receptor tyrosine kinase ([…]560-576 and V654A) was employed for assessing cellular potency of compounds. Cellular activity of mutant cKIT was determined by the degree of cKIT autophosphorylation at tyrosine 307 using a Luminex-based bead assay. GIST430/654 cells were plated with 25,000 cells per well of a 96-well plate in 100 μl medium (85% IMDM/15% FCS supplemented with 100 nM Imatinib). At the following day compounds were added in a serial dilution for 45 min. Then, cells were lysed with 90 μl lysis buffer (20 mM Hepes pH 7.5, 200 mM NaCl, 1.5 mM MgCl2×6H2O, 0.4 mM EDTA, 1% Triton-X-100, 1% Phosphatase-Inhibitor II, 20 mM D-Glycerolphosphat, 0.1% Protease-Inhibitor Cocktail III, 0.01% Benzonase) und lysates were cleared by centrifugation through a 96-well filter plate (0.65 μm). Samples were incubated with Luminex-beads which were coupled with an anti-total cKIT antibody overnight at 4° C. under gentle agitation. For detection of phospho-Y307-cKIT a phosphospecific antibody and a species-specific PE-labelled secondary antibody were added. The amount of phospho-Y307-cKIT was determined in a Luminex 200 instrument measuring 100 events per well within 60 seconds.
Counts from samples treated with compounds were calculated as percent of control from solvent treated (0.3% DMSO) samples. Dose-response curves were fitted and IC50 values were determined using Genedata Screener software.

c-Kit(V654A) = c-Kit(V654A) (Homo sapiens, UniProt P10721, V654A); test: c-Kit(V654A) assay; assay type: biochemical
Procedure: c-Kit(V654A) (N-terminal GST-tagged, recombinant human c-Kit, amino acids 544-end containing the V654A mutation) is incubated with 8 mM MOPS pH 7.0, 0.2 mM EDTA, 250 μM GGMEDIYEFMGGKKK, 10 mM MgAcetate and [gamma-33P-ATP](specific activity approx. 500 cpm/pmol, concentration 200 μM). The reaction is initiated by the addition of the MgATP mix. After incubation for 40 minutes at room temperature, the reaction is stopped by the addition of 3% phosphoric acid solution. 10 μL of the reaction is then spotted onto a P30 filtermat and washed three times for 5 minutes in 75 mM phosphoric acid and once in methanol prior to drying and scintillation counting.

[2] = Table 1, cKIT autophosphorylation, compounds 45 min
[3] = Table 2, corresponding triazole derivatives
[4] = Table 2, isoxazole derivatives presently described

mutant cKIT (560-576 and V654A) in GIST430/654 cell line, sequence (P10721 other isoform, or with tags, fused parts or gaps V654A/del 1-25/del 560-576 limits assumed): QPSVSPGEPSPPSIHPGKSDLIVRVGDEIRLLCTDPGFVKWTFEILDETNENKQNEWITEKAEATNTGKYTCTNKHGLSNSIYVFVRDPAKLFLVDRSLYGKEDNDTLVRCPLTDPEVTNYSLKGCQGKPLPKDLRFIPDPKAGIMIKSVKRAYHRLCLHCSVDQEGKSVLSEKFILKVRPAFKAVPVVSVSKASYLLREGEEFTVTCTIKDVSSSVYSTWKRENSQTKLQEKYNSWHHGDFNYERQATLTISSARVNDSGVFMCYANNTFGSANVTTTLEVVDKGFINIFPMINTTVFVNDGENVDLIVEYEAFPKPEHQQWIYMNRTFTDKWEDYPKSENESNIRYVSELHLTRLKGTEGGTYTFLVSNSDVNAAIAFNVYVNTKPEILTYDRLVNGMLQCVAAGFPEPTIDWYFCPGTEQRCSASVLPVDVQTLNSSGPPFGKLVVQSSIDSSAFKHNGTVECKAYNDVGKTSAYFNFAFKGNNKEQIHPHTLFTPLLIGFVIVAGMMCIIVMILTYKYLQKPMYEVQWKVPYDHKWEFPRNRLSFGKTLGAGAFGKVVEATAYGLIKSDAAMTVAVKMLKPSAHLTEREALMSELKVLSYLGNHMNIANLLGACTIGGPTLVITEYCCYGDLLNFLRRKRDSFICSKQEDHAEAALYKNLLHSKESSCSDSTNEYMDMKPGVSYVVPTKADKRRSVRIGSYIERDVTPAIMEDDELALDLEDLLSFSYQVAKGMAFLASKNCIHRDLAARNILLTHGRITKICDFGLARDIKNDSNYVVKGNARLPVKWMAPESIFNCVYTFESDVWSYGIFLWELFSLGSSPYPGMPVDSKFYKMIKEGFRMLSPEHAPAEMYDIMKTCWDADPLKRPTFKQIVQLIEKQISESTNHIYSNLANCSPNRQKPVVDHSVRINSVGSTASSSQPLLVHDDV

Row | Compound | IC50 [1, 2] | IC50 (c-Kit(V654A); Table 1, 200 μM ATP) | further results
1 | COCCOc1cc2[nH]nc(-c3cc(-c4ccc(C(=O)N(C)C)cc4)no3)c2cc1C#N [A6, 4-{5-[5-cyano-6-(2-methoxyethoxy)-1H-indazol-3-yl]-1,2-oxazol-3-yl}-N,N-dimethylbenzamide] | 150 nM | 4.1 nM | –
2 | COCCOc1cc2[nH]nc(-c3cc(-c4ccc(C(=O)N5CCN(C)C[C@@H]5C)cc4)on3)c2cc1C#N [A11, 3-(5-{4-[(2S)-2,4-dimethylpiperazine-1-carbonyl]phenyl}-1,2-oxazol-3-yl)-6-(2-methoxyethoxy)-1H-indazole-5-carbonitrile] | 170 nM | 2.4 nM | –
3 | CC(C)(O)C1CCCN1C(=O)c1ccc(-c2cc(-c3n[nH]c4cc(C(F)(F)F)ccc34)on2)cc1 (stereo not shown) [A1, 2-[1-(4-{5-[6-(trifluoromethyl)-1H-indazol-3-yl]-1,2-oxazol-3-yl}benzoyl)pyrrolidin-2-yl]propan-2-ol] | 350 nM | 15 nM | –
4 | COCCOc1cc2[nH]nc(-c3cn(-c4ccc(C(=O)N5CCOC[C@@H]5C)cc4)nn3)c2cc1F [reference compound] | – | – | IC50 [1, 3]: 230 nM; IC50 (c-Kit(V654A); [3]): 6.9 nM
5 | COCCOc1cc2[nH]nc(-c3cc(-c4ccc(C(=O)N5CCN(C)C[C@@H]5C)cc4)no3)c2cc1F [A3, 3-(3-{4-[(2S)-2,4-dimethylpiperazine-1-carbonyl]phenyl}-1,2-oxazol-5-yl)-5-fluoro-6-(2-methoxyethoxy)-1H-indazole] | 38 nM | 1.4 nM | IC50 [1, 4]: 38 nM; IC50 (c-Kit(V654A); [4]): 1.4 nM
6 | COCCOc1cc2[nH]nc(-c3cc(-c4ccc(-n5cncn5)cc4)no3)c2cc1F [A21, 5-fluoro-6-(2-methoxyethoxy)-3-{3-[4-(1H-1,2,4-triazol-1-yl)phenyl]-1,2-oxazol-5-yl}-1H-indazole] | 570 nM | 12 nM | –
7 | C[C@H]1CN(C)CCN1C(=O)c1ccc(-c2cc(-c3n[nH]c4cc(C(F)(F)F)ccc34)on2)cc1 [A50, 3-(3-{4-[(2S)-2,4-dimethylpiperazine-1-carbonyl]phenyl}-1,2-oxazol-5-yl)-6-(trifluoromethyl)-1H-indazole] | 730 nM | 14 nM | –
8 | COCCOc1cc2[nH]nc(-c3cc(-c4ccc(C(=O)N5CC(N6CCN(C)CC6)C5)cc4)no3)c2cc1Cl [A65, (4-{5-[5-chloro-6-(2-methoxy-ethoxy)-1H-indazol-3-yl]-isoxazol-3-yl}-phenyl)-[3-(4-methyl-piperazin-1-yl)-azetidin-1-yl]-methanone] | 160 nM | 0.89 nM | –
9 | COCCOc1cc2[nH]nc(-c3cc(-c4ccc(C(=O)N5CC(N6CCS(=O)(=O)CC6)C5)cc4)no3)c2cc1F [A57, 4-[1-(4-{5-[5-fluoro-6-(2-methoxyethoxy)-1H-indazol-3-yl]-1,2-oxazol-3-yl}benzoyl)azetidin-3-yl]-1lambda6-thiomorpholine-1,1-dione] | 180 nM | 1.9 nM | –
10 | COCCOc1cc2[nH]nc(-c3cc(-c4ccc(C(=O)N5CC6(CCOC6)C5)cc4)no3)c2cc1F [A77, 5-fluoro-6-(2-methoxyethoxy)-3-[3-(4-{6-oxa-2-azaspiro[3.4]octane-2-carbonyl}phenyl)-1,2-oxazol-5-yl]-1H-indazole] | 47 nM | 1 nM | –
11 | COCCOc1cc2[nH]nc(-c3cc(-c4ccc(NC(C)=O)cc4)no3)c2cc1Cl [A17, N-(4-{5-[5-chloro-6-(2-methoxyethoxy)-1H-indazol-3-yl]-1,2-oxazol-3-yl}phenyl)acetamide] | 130 nM | 5.3 nM | –
12 | COCCOc1cc2[nH]nc(-c3cc(-c4ccc(C(=O)NCCN(C)C)cc4)no3)c2cc1F [A72, N-[2-(dimethylamino)ethyl]-4-{5-[5-fluoro-6-(2-methoxyethoxy)-1H-indazol-3-yl]-1,2-oxazol-3-yl}benzamide] | 320 nM | 2.6 nM | –

Further lines, with some results ahead:

Row | IC50 [1, 2] | IC50 (c-Kit(V654A); Table 1, 200 μM ATP) | Compound | further results
13 | 40 nM | 1 nM | COCCOc1cc2[nH]nc(-c3cc(-c4ccc(C(=O)N5CC(C)(N(C)C)C5)cc4)no3)c2cc1F [A181, 1-(4-{5-[5-fluoro-6-(2-methoxyethoxy)-1H-indazol-3-yl]-1,2-oxazol-3-yl}benzoyl)-N,N,3-trimethylazetidin-3-amine] | –
14 | 340 nM | 3.1 nM | COc1cc2[nH]nc(-c3cc(-c4ccc(C(=O)N5CCNCC5)cc4)no3)c2cc1F [A225, {4-[5-(5-fluoro-6-methoxy-1H-indazol-3-yl)-isoxazol-3-yl]-phenyl}-piperazin-1-yl-methanone] | –
15 | 350 nM | 5.2 nM | COCCOc1cc2[nH]nc(-c3cc(-c4ccc(C(=O)NCc5nc6ccccc6[nH]5)cc4)no3)c2cc1F [A156, N-[(1H-1,3-benzodiazol-2-yl)methyl]-4-{5-[5-fluoro-6-(2-methoxyethoxy)-1H-indazol-3-yl]-1,2-oxazol-3-yl}benzamide] | –
16 | 360 nM | 55 nM | COCCOc1cc2[nH]nc(-c3cc(-c4ncc(C(=O)N(C)C)s4)no3)c2cc1F [A92, 2-{5-[5-fluoro-6-(2-methoxyethoxy)-1H-indazol-3-yl]-1,2-oxazol-3-yl}-N,N-dimethyl-1,3-thiazole-5-carboxamide] | –
17 | 48 nM | 3.8 nM | COCCOc1cc2[nH]nc(-c3cc(-c4ccc(C(=O)N5CCN(C6COC6)CC5)c(F)c4)no3)c2cc1F [A196, (2-fluoro-4-{5-[5-fluoro-6-(2-methoxy-ethoxy)-1H-indazol-3-yl]-isoxazol-3-yl}-phenyl)-(4-oxetan-3-yl-piperazin-1-yl)-methanone] | –
18 | 58 nM | 0.79 nM | COCCOc1cc2[nH]nc(-c3cc(-c4ccc(C(=O)N5CCOCC5)cc4)no3)c2cc1F [A104, 5-fluoro-6-(2-methoxyethoxy)-3-{3-[4-(morpholine-4-carbonyl)phenyl]-1,2-oxazol-5-yl}-1H-indazole] | –
19 | 30 nM | 0.8 nM | COCCOc1cc2[nH]nc(-c3cc(-c4ccc(C(=O)N5CC(N6CCO[C@@H](C)C6)C5)cc4)no3)c2cc1F [A210, 5-fluoro-6-(2-methoxyethoxy)-3-[3-(4-{3-[(2S)-2-methylmorpholin-4-yl]azetidine-1-carbonyl}phenyl)-1,2-oxazol-5-yl]-1H-indazole] | –
20 | 280 nM | 8 nM | COc1cc2[nH]nc(-c3cc(-c4ccc(C(=O)N5CCN(C6COC6)CC5)cc4)no3)c2cc1F [A219, {4-[5-(5-Fluoro-6-methoxy-1H-indazol-3-yl)-isoxazol-3-yl]-phenyl}-(4-oxetan-3-yl-piperazin-1-yl)-methanone] | –
21 | 340 nM | 12 nM | COCCOc1cc2[nH]nc(-c3cc(-c4ccc(C(=O)N5CC[C@@H]5C(C)(C)O)nc4)no3)c2cc1F [A119, (5-{5-[5-fluoro-6-(2-methoxy-ethoxy)-1H-indazol-3-yl]-isoxazol-3-yl}-pyridin-2-yl)-[(R)-2-(1-hydroxy-1-methyl-ethyl)-azetidin-1-yl]-methanone] | –
22 | 60 nM | 1.6 nM | COCCOc1cc2[nH]nc(-c3cc(-c4ccc(C(=O)N5CCOCC56COC6)cc4)no3)c2cc1F [A155, 5-(4-{5-[5-fluoro-6-(2-methoxyethoxy)-1H-indazol-3-yl]-1,2-oxazol-3-yl}benzoyl)-2,8-dioxa-5-azaspiro[3.5]nonane] | –
23 | 47 nM | 0.62 nM | COCCOc1cc2[nH]nc(-c3cc(-c4ccc(C(=O)N5CC(c6cnn(C)c6)C5)cc4)no3)c2cc1F [A218, 5-fluoro-6-(2-methoxyethoxy)-3-(3-{4-[3-(1-methyl-1H-pyrazol-4-yl)azetidine-1-carbonyl]phenyl}-1,2-oxazol-5-yl)-1H-indazole] | –
24 | 87 nM | 1.9 nM | COCCOc1cc2[nH]nc(-c3cc(-c4ccc(C(=O)N5CC(N6CCN(C7COC7)CC6)C5)cc4)no3)c2cc1F [A197, 5-fluoro-6-(2-methoxyethoxy)-3-[3-(4-{3-[4-(oxetan-3-yl)piperazin-1-yl]azetidine-1-carbonyl}phenyl)-1,2-oxazol-5-yl]-1H-indazole] | –
25 | 160 nM | 1.3 nM | COCCOc1cc2[nH]nc(-c3cc(-c4ccc(C(=O)N5CC(N6CCN(C)CC6)C5)cc4)no3)c2cc1F [A102, 5-fluoro-6-(2-methoxyethoxy)-3-(3-{4-[3-(4-methylpiperazin-1-yl)azetidine-1-carbonyl]phenyl}-1,2-oxazol-5-yl)-1H-indazole] | –
